Reference: ChEMBL document CHEMBL3352634 (Bioorg Med Chem Lett, 2014)
Where a chain is given by its changes, count along the chain named.

Assays:
[1] = biological target: T1, Peroxisome proliferator-activated receptor alpha (Homo sapiens) (UniProt Q07869); test: Agonist activity at wild-type human PPARalpha LBD expressed in COS7 cells after 12 hrs by Dual-Glo luciferase assay relative to control; assay type: cell-based; conditions: COS-7
T1 sequence (whole entry): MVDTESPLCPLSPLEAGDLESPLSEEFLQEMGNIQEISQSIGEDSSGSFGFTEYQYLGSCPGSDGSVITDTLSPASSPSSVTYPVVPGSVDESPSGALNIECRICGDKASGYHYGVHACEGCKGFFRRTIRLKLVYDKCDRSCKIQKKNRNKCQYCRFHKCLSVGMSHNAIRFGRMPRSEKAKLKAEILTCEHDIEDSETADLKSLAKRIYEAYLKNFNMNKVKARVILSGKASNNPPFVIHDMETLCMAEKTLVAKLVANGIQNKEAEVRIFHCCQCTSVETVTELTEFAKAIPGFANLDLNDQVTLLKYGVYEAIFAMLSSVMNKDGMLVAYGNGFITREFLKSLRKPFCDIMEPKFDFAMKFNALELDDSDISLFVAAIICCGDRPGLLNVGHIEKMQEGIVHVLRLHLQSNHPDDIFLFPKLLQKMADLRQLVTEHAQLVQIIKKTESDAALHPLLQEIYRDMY

[2] = biological target: T2, Peroxisome proliferator-activated receptor gamma (Homo sapiens) (UniProt P37231); test: Agonist activity at human PPARgamma LBD expressed in COS7 cells after 12 hrs by Dual-Glo luciferase assay relative to pioglitazone; assay type: cell-based; conditions: COS-7
T2 sequence (whole entry): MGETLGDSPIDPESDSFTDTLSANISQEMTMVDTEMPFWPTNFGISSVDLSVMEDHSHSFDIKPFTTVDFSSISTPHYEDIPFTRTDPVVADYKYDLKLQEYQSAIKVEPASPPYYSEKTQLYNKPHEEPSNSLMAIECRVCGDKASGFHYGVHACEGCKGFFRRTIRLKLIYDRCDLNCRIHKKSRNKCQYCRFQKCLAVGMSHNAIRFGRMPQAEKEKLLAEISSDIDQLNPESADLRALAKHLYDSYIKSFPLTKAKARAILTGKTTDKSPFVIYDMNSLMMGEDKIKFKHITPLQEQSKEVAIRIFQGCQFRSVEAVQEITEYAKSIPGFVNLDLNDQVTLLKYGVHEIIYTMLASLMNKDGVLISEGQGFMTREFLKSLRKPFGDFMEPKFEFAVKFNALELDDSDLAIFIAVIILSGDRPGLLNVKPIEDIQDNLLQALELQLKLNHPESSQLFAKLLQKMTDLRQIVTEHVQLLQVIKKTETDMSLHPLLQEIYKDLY

[3] = biological target: T3, Peroxisome proliferator-activated receptor alpha (Homo sapiens, UniProt Q07869); test: Agonist activity at wild-type human PPARalpha LBD expressed in COS7 cells after 12 hrs by Dual-Glo luciferase assay; assay type: cell-based, COS-7
T3 sequence (Q07869 whole entry): T1 sequence (whole entry)

[4] = biological target: T4, Peroxisome proliferator-activated receptor gamma (Homo sapiens, UniProt P37231); test: Agonist activity at human PPARgamma LBD expressed in COS7 cells after 12 hrs by Dual-Glo luciferase assay; assay type: cell-based, COS-7
T4 sequence (P37231 whole entry): T2 sequence (whole entry)

[5] = test system: T5, Peroxisome proliferator-activated receptor alpha (Homo sapiens), Q07869 [T279A]; test: Agonist activity at wild-type human PPARalpha Thr279Ala mutant expressed in COS7 cells after 12 hrs by Dual-Glo luciferase assay relative to control; assay type: cell-based; conditions: COS-7
T5 sequence (whole entry): T1 sequence (whole entry) with T279A

[6] = biological target: Peroxisome proliferator-activated receptor alpha (Homo sapiens, UniProt Q07869, T279A); test: Agonist activity at wild-type human PPARalpha Thr279Ala mutant expressed in COS7 cells after 12 hrs by Dual-Glo luciferase assay; assay type: cell-based, COS-7
Sequence of Peroxisome proliferator-activated receptor alpha (Homo sapiens, UniProt Q07869, T279A) (Q07869 whole entry T279A, the tested form may be a part): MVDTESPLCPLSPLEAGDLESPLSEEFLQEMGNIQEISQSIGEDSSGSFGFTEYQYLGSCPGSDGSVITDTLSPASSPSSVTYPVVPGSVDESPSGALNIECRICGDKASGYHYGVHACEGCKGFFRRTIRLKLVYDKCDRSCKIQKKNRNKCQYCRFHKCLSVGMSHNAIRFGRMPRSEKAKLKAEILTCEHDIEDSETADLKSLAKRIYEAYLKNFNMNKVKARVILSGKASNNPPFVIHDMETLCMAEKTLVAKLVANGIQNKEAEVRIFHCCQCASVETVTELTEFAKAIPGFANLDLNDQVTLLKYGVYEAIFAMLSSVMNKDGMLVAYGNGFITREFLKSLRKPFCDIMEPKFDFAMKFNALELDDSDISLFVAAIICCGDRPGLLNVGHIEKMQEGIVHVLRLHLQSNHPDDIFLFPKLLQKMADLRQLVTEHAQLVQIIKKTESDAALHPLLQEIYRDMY

[7] = biological target: T1, Peroxisome proliferator-activated receptor alpha (Homo sapiens); test: Agonist activity at wild-type human PPARalpha LBD expressed in COS7 cells after 12 hrs by Dual-Glo luciferase assay relative to pirinixic acid; assay type: cell-based; conditions: COS-7
COS-7 = test: Selectivity ratio of EC50 for human PPARgamma LBD expressed in COS7 cells to EC50 for wild-type human PPARalpha LBD expressed in COS7 cells; assay type: cell-based

Structure (SMILES) | %max [1] [%] | %max [2] [%] | EC50 [3] [µM] | EC50 [4] [µM] | %max [5] [%] | EC50 [6] [µM] | %max [7] [%] | Ratio EC50 (COS-7)
CCCCC(Sc1nc(Cl)cc(Nc2ccc(Nc3ccccc3)cc2)n1)C(=O)O (stereo not drawn) | 137 | 135 | 0.35 | 1.06 |  |  |  | 
Cc1cccc(Nc2cc(Cl)nc(SCC(=O)O)n2)c1C |  | 79 |  |  |  |  |  | 
CCCCCCC(Sc1nc(Cl)cc(Nc2ccc(C(=O)c3ccccc3)cc2)n1)C(=O)O (stereo not drawn) | 134 | 117 | 0.28 | 1.2 | 105 | 0.07 |  | 
CCCCCCC(Sc1nc(Cl)cc(Nc2cccc(C)c2C)n1)C(=O)O (stereo not drawn) |  | 139 | 1 |  |  |  | 146 | 
CCCCCCC(Sc1nc(Cl)cc(Nc2ccc(Nc3ccccc3)cc2)n1)C(=O)O (stereo not drawn) | 95 | 126 | 0.07 | 0.69 | 115 | 0.1 |  | > 10
CCCCCCC(Sc1nc(Cl)cc(Nc2ccc(Oc3ccccc3)cc2)n1)C(=O)O (stereo not drawn) | 155 | 146 | 0.28 | 2.36 | 87 | 0.15 |  | 
CCCCC(Sc1nc(Cl)cc(Nc2cccc(C)c2C)n1)C(=O)O (stereo not drawn) |  | 120 |  |  |  |  |  | 
O=C(O)CSc1nc(Cl)cc(Nc2ccc(Nc3ccccc3)cc2)n1 | 133 | 143 | 12 | 12.4 |  |  |  | 
CCCCCCC(Sc1nc(Cl)cc(Nc2ccc(Cc3ccccc3)cc2)n1)C(=O)O (stereo not drawn) | 127 | 158 | 0.72 | 0.49 | 83 | 0.24 |  | 
